Laboratory results taken from patent US20150082479A1, “CHEMICAL SELECTION OF RESISTANT GAMETES OF PLANTS IN THE FIELD” (PIONEER HI BRED INTERNATIONAL INC, priority 2008, published 2015).

Tests used:
Type in all cases: in vivo, maize
non-transgenic gametes = experiment: Field application of herbicide to hemizygous glyphosate resistant plants at V12-V19; crosses, progeny seedlings sprayed, survivors counted, chi square of segregation ratios
Method: The elimination of non-transgenic gametes was also tested at the V12-V19 stages. Meiosis sorted the transgene of a diploid hemizygous microsporophyte or macrosporophyte into one-half of the gametes. The resulting transgenic construct contained a gene conferring plant resistance or tolerance to a specific herbicide, namely glyphosate. Application of the herbicide treatments at various growth phases eliminated gametes lacking the transgenic construct.
Glyphosate treatments included: V12, V17, V19, V15+V17, and V17+V19. Each application, included splits 3 quarts/A. Only resistant plants were sprayed. Glufosinate treatments included: V12, V17, V18, V19, V15+V17, and V17+V19. Each application, included splits 1.5 quarts/A. Only resistant plants were sprayed.
Pollination of the sprayed resistant plants included: 4 selfed, 4 pollinations from unsprayed resistant, 4 pollinations from susceptible. Pollination of the unsprayed resistant plants included: 4 selfed, 4 pollinations from sprayed resistant, 4 pollinations from susceptible. […]
Survivors were counted and chi square analysis performed to determine whether segregation ratios deviated from the null hypothesis (e.g., 75:25 resistant phenotype for selfs or crosses within the resistant hemizygous hybrids, 50:50 resistant phenotype for crosses between resistant and susceptible hybrids, or 100% mortality for susceptible selfed seed).

wild type pollen = experiment: Treated heterozygous plants crossed onto wild type inbred; progeny leaf dip test (rag doll, 2% v/v RoundUp Ultra)
Description: (§1) Four row plots of a heterozygous inbred for glyphosate resistance were established. At the V10, V12, V14 and V10+V14 stages of plant development, glyphosate was broadcast to the center two rows. The WeatherMax glyphosate formulation was applied at 0, 1.6 and 3.2 l/Ha, such rates corresponding to 0, 1 and 2 times the normal commercial rates in corn production. To assure there was no glyphosate drift on the non-treated controls, non-treated plants were separated by 16 border rows.
(§2) A series of crosses were made from the treated plants to identify the gamete rouging effects of glyphosate on both pollen and ovules. To characterize the effects on pollen, heterozygous plants treated with glyphosate were crossed onto a wild type inbred. To characterize the effect of glyphosate on ovules, non-treated wild type pollen was crossed to heterozygous plants treated with glyphosate. Finally, the treated heterozygous plants were selfed and tested for zygosity via quantitative PCR.
(§3) The progeny of the various crosses from Example 2 were evaluated by two methods. In the first method, 25 seeds per replication (4 replications in total) were planted into rag dolls and grown at 25° C. in darkness four days. After this time, the rag dolls were transferred to a greenhouse to allow the shoots to turn green. After four days in the greenhouse, seedlings for each rag doll were dipped in a 2% v/v solution of RoundUp Ultra (concentration corresponding to common concentrations in spray applications at the field level). After one week, individual plants were rated as normal, dead or abnormal. Normal plants were assumed to carry the gene for tolerance to glyphosate, dead plants were assumed to be wild type.
The crosses separated the effects of glyphosate on pollen and ovule gametes. To separate effects on pollen, heterozygous plants were sprayed with glyphosate and pollen collected from treated plants was crossed onto homozygous wild type plants. […]

wild type ovules = experiment: Non-treated wild type pollen crossed to treated heterozygous plants; progeny leaf dip test
Description: as §1, §2, §3
The effects of glyphosate on wild type ovules were less pronounced than for pollen gametes (as expressed in FIG. 8). In the control treatment, untreated heterozygous plants were pollinated with homozygous wild type pollen. Expected segregation ratios for the progeny of this cross would be 50% resistant and 50% susceptible. Here, the control progeny segregated at 54% resistant, statistically equal to the expected ratio of 50%. […] At the highest rate of glyphosate, the segregation of progeny was clearly disturbed. High rates applied at the V14 stage produced progeny nearly 100% resistant, while applications made before V14 were intermediate.

wild type gametes [1] = experiment: Treated heterozygous plants selfed; progeny leaf dip test; details: all treatments except V12 at the lowest rate, non-treated 75% (FIG. 9)
Description: as §1, §2
The progeny of the various crosses from Example 2 were evaluated by two methods. In the first method, 25 seeds per replication (4 replications in total) were planted into rag dolls and grown at 25° C. in darkness four days. After this time, the rag dolls were transferred to a greenhouse to allow the shoots to turn green. […]

wild type gametes [2] = experiment: Treated hemizygous plants selfed; progeny scored for level of zygosity via QtPCR
Description: as §2
In the second method of analysis, the glyphosate resistant selfed plants were grown in the field and leaf punched at the V8 stage of development. Leaf tissues were then frozen and scored for their level of zygosity according to standard PCR protocols for glyphosate resistance. The data from the progeny tests was arc sine transformed and submitted to a common analysis of variance. Since the F-test for overall treatments was highly significant, tests of significance between the controls and the various treatments were also conducted.
Plants hemizygous for glyphosate resistance were sprayed with glyphosate and then selfed. The progeny were then scored for level of zygosity via QtPCR. While the results from PCR corroborate data from the leaf dip assays, the magnitude of the response is less (as expressed in FIG. 10).

With `O=C(O)CNCP(=O)(O)O` [glyphosate] the “elimination of non-transgenic gametes” value (non-transgenic gametes; application at V12, 3 quarts/A, glyphosate resistant plants (FIG. 1)) was “eliminated most non-transgenic female and male gametes”, the “elimination of non-transgenic gametes” value (non-transgenic gametes; application at V15 or later, 3 quarts/A, glyphosate resistant plants (FIGS. 2-5)) was “primarily eliminated non-transgenic female gametes” and the “effect on wild type pollen: dependence on rate or time of application” value (wild type pollen; 1.6 vs 3.2 l/Ha, V10, V12, V14, V10+V14) was “not affected by rate or time of application”. For the same compound, the “rouging of wild type pollen (leaf dip test)” value (wild type pollen; V10, V12, V14, V10+V14, 1.6 and 3.2 l/Ha (FIG. 7)) was “highly effective in rouging wild type pollen”, the “progeny resistant to glyphosate” value (wild type pollen; treated plants crossed to wild type ovules, all rates and timings, expected 50% if no effect (FIG. 7)) was about 100% and the “progeny resistant to glyphosate” value (wild type ovules; high rates applied at V14, expected 50% if no effect (FIG. 8)) was about 100%. For the same compound, the “progeny resistant to glyphosate” value (wild type ovules; highest rate, applications made before V14 (FIG. 8)) was “intermediate”, the segregation of progeny (wild type ovules; treated at V10 and V12 at the lowest rate, pollinated with wild type pollen (FIG. 8)) was “segregated as expected if glyphosate had no affect on wild type ovules” and the “progeny resistant to glyphosate” value (wild type ovules; two pass program V10+V14 (FIG. 8)) was about 100%. For the same compound, the “progeny resistant to glyphosate” value (wild type gametes [1]) was about 100%, the “ratio of homozygous wild type plants in selfed progeny (QtPCR)” value (wild type gametes [2]; sprayed then selfed (FIG. 10)) was “significantly reduced the ratio of homozygous wild type plants” and the “percentage of homozygous glyphosate resistant plants in selfed progeny (QtPCR)” value (wild type gametes [2]; two pass applications at the highest rates (FIG. 10)) was “produced the greatest percentage of homozygous glyphosate resistant plants”.
